US11420962B2, “Indene derivatives useful in treating pain and inflammation” (TARO PHARMACEUTICALS INC., priority 2018, dated 2022)

Assays:
[1] = Metabolism by human liver microsomes; type: in vitro ADME; conditions: Table 8; 10 µM, in the presence of NADPH, 1 mg/mL protein
Procedure, shortened: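 Compound at 10 μM preincubated 10 min at 37 °C with human liver microsomes (1 mg/mL protein), 100 mM Tris HCl pH 7.5; started with 1 mM NADPH, run 60 min. Percent remaining at 60 min versus 0-time by LC-MS/MS analyte/internal-standard ratio, scored in bands.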

Rat DRG = assay: Rat dorsal root ganglion excitability response (EFS, Ca2+ transients); type: cell-based; conditions: Rattus norvegicus; Table 3; electrical field stimulation, Ca5 indicator; read-out: Scoring (EC50, Rat DRG excitability)
Procedure, shortened: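 Adult rat DRG cells cultured for 2 days were loaded with the Ca5 dye 1 h before electrical field stimulation under four protocols. Compounds were tested at six concentrations (typically top 30 μM, 1:3 steps, duplicate), added either 24 h before or directly before EFS. The read-out was the per-well peak/baseline fluorescence ratio change, with imaging used to check for toxicity.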

T cells = assay: T cell proliferation (anti-CD3/anti-CD28 dynabeads, CCK-8); type: cell-based, mice; conditions: Table 4, mouse T cells, 72 hours after dynabeads, read-out: Scoring (IC50, cell proliferation)
Description: Spleens were obtained from six male, CD-1 outbred mice, approximately 8 weeks old. Cells were harvested under sterile conditions by forcing each spleen though a cell filter (pore size 100 μm diameter). A homogenous cell suspension was obtained by washing the cells in fresh medium and passing cells through a smaller cell filter (pore size 70 μm).
Untouched T cells were isolated using the Pan T cell isolation kit (Miltenyi Biotech). Briefly, cells were counted and incubated with the required volume of antibody cocktail for 5 minutes at 4° C. before addition of microbeads and incubation for 10 minutes at 4° C. Labeled cells were retained in a magnetic column while unlabeled cells (T cells) passed through the column and were retained for use in the assay.
Cell viability was assessed by Trypan Blue exclusion and found to be >99% prior to transfer to plates. Isolated T cells were seeded out in 96 well plates at a density of 50,000 cells per well and allowed to incubate for 60 minutes in a humidified cell culture (37° C., 5% CO2) incubator prior to compound treatment. The media used for this assay (TexMACS, Miltenyi Biotech) was previously optimized for proliferation of T cells in serum free conditions.
Representative compounds of the invention (i.e., test compounds) were prepared as 30 mM stocks in 100% DMSO. Test compounds were initially diluted in media to yield 3 mM stocks before an additional 1:10 dilution in media was performed to yield working stocks of 300 μM (1% DMSO). Subsequent dilutions were performed in media (supplemented with 1% DMSO). When added to the assay plates (1:10 dilution), these yielded final concentrations in the assay plates of in 0.1% DMSO. The reference compound, Cyclosporin A, was prepared in an identical manner as above.
Unstimulated and Stimulated Control wells received an identical volume of TexMACS media/1% DMSO at this time, resulting in a final concentration of 0.1% DMSO across the plate. Mouse anti-CD3/anti-CD28 dynabeads were prepared (following the manufacturers' instructions) in TexMACS media and added to appropriate wells to achieve a final concentration of 1 bead per cell. Unstimulated Control wells then received an identical volume of TexMACS. Plates were centrifuged 72 hours after addition of dynabeads, (300×g for 3 minutes) to pellet the cells and 60% of the supernatant was removed to a fresh plate for analysis by ELISA. After removal of 60% of the supernatant for subsequent ELISA, cell proliferation was assessed using the CCK-8 assay.
Average response by the standard compound, cyclosporin A, was 1 uM.

Mice (male, C57Bl/6) [2] = assay: Formalin pain assay in mice; type: in vivo; conditions: Table 7; formalin 2.5%, left plantar
Description: Mice (male, C57BL/6) were placed singly in a Perspex chamber for approximately 30 min on three successive days to acclimate and thereby reduce stress-induced behaviors. On the fourth day, the experimental animals received a 25 μl injection of 2.5% formalin beneath the left plantar skin using a 29-gauge syringe. […] The total time spent on flinches/licking/biting of the hind paw was recorded by visual observation for every 5 min period/interval for total observation duration of 60 min in two phases, the early phase (0-5 min) and the late phase (15-40 min). Observers were blinded to the treatment group allocation.
For test compounds, the % protection from 0-60 min was used to assess activity. Scoring for the test compounds was as follows: “A” represents a % protection of 81 to 100%, “B” represents a % protection of 61 to 80%, “C” represents a % protection of 31 to 60% and “D” represents a % protection of 0 to 30%.

[3] = tested on: Rats (male, Sprague-Dawley); assay: TNBS colitis assay in rats; type: in vivo; conditions: 10 mg/kg dose
Description: TNBS Colitis Assay of Representative Compounds in Rats Rats (male, Sprague-Dawley) were anaesthetized and a solution of TNBS (48 mg/kg) in ethanol, was instilled intra-rectally to induce colitis, 1 h after oral dosing of representative compounds of the invention (i.e., test compounds). Test compounds were dosed PO, QD for 7 days, using prednisolone as a reference standard. […] On Day 7, rats were euthanized and the colon was evaluated for length, weight, wall thickness, ulcer number and length and for the presence of adhesions and strictures. A colonic score was calculated based on the severity of the colonic parameters.

Mice (male, C57Bl/6) [4] = assay: Bleomycin lung fibrosis; type: in vivo
Description: Mice (male, C57BL/6) were randomized into treatment groups and fibrosis was induced by intratracheal administration of bleomycin. Treatment with representative compounds of the invention (i.e., test compounds) or reference standard (pirfenidone) was initiated on Day −1 and administered daily unto Day 7 or Day 21. For groups undergoing bronchoalveolar lavage (BAL), the trachea was cannulated and infused with ice cold Hank's Balanced Salt Solution (HBSS, pH 7.2). The collected lavage fluid was analyzed for cell numbers (total and differential counts) and levels of soluble TGFβ and collagen. For other groups, the lungs were either snap-frozen or formalin-fixed for further analyses.

male Sprague-Dawley rats = assay: Rat chronic prostatitis/chronic pelvic pain (carrageenan); type: in vivo; conditions: 300 mg/kg
Description: Representative compounds of the invention (i.e., test compounds) were administered for 11 days by oral gavage in 0.9% saline (3, 10 or 30 mg/kg QD; 5 mL/kg dose volume) to male Sprague-Dawley rats. Carrageenan-mediated chronic prostatitis/chronic pelvic pain (CP/CPPS) established in rats (10 per group) by administration of an intraprostatic injection of carrageenan (˜12.5 μL/lobe of a 30 mg/mL solution) into both ventral prostate lobes, on Day 0. Referred mechanical sensitivity was measured on Days 0, 1, 3 and 7, 2 hours after test compound, or vehicle (saline) administration, by applying 6 von Frey filaments with increasing forces of 0.16-2 g to the scrotal skin area, 3 times each for 1-2 seconds, with a 5-second interval between applications. Responses were scored (zero-no response; one-reaction of the animal, two-jump, and three-licking the site) and expressed as the nociceptive threshold for each day of assessment. Ibuprofen was used as a reference standard.
According to the above assay, Compound Ia-1 restored nociceptive threshold to 65% of baseline on Day 3 at the 30 mg/kg dose as compared to the reference standard, ibuprofen (300 mg/kg), which restored the threshold to 120% of the baseline.

[5] = tested on: female Sprague-Dawley rats; assay: Cyclophosphamide-induced cystitis in rats (visceral pain); type: in vivo; conditions: 300 mg/kg dose
Description: Representative compounds of the invention (i.e., test compounds) were administered to female Sprague-Dawley rats, for four days by oral gavage in 0.9% saline. Two hours after the fourth dose, the rats were challenged by intraperitoneal administration of cyclophosphamide (150 mg/kg). Referred mechanical sensitivity was measured four hours later by applying a series of eight von Frey filaments to the lower abdomen, three times each for 1-2 seconds with a 5 second interval between applications. Responses were scored (zero-no response; one-response, two-response and change of position, and three-response, change of position and licking the site or vocalization), totaled and the percent of maximal possible nociceptive score calculated. Ibuprofen was used as a reference standard.

[6] = tested on: Rats (male, Sprague-Dawley); assay: Spinal nerve ligation (neuropathic pain); type: in vivo; conditions: 10 mg/kg
Description: Rats (male, Sprague-Dawley) were anaesthetized and placed in a prone position and the left paraspinal muscles were separated from the spinous processes at the L6-S2 levels. The L6 transverse process was carefully removed to visually identify the L4-L6 spinal nerves. The left L5 spinal nerves were isolated and tightly ligated with 6-0 silk thread. The skin was sutured to close the open tissue and animals were allowed to recover for 1 week before pain assessment. Basal readings for mechanical allodynia and thermal hyperalgesia were performed using a dynamic plantar aesthesiometer and plantar test surface, respectively, before surgery. On Day 7 following surgery, mechanical allodynia and thermal hyperalgesia were assessed and animals were randomized into treatment groups based on these baseline readings. […] Thermal hyperalgesia and mechanical allodynia were tested at 0, 60 and 120 minutes post administration of compounds on Days 7 and 14.

rats (male, Wistar) = assay: Rat monosodium iodoacetate-induced osteoarthritis; type: in vivo
Description: Representative compounds of the invention (i.e., test compounds) were administered to rats (male, Wistar) PO, QD, at 3 or 30 mg/kg, starting on Day 0 through to Day 21 of the study. Osteoarthritis was modeled by intra-articular injection of 3 mg of monosodium iodoacetate (MIA) in the right knee. Knee swelling, paw withdrawal threshold (mechanical allodynia) and the difference in weight bearing were measured on Day 0 (pre-induction) and on Days 3, 7, 14 and 21 post-MIA injection. Tramadol was used as a reference standard.

| Structure (SMILES) | Scoring (% of drug remaining after 60 minutes, PDR60) [1] | EC50 (Rat DRG) | IC50 (T cells) | also measured |
| --- | --- | --- | --- | --- |
| C=C1CC[C@H]2[C@H](CN)[C@@H]([C@@]3(C)Cc4c(C)n[nH]c4C[C@@H]3CO)CC[C@]12C [Ia-32, ((5R,6S)-5-((3aS,4R,5S,7aS)-4-(aminomethyl)-7a-methyl-1-methyleneoctahydro-1H-inden-5-yl)-3,5-dimethyl-4,5,6,7-tetrahydro-1H-indazol-6-yl)methanol] | B (a PDR^60 of 61 to 80%) | > 15 µM | 6 to 15 µM | Scoring (% protection from 0-60 min) (Mice (male, C57Bl/6) [2]): C (a % protection of 31 to 60%) |
| C=C1CC[C@H]2[C@H](CNCc3ccc4c(c3)OC(F)(F)O4)[C@@H]([C@@]3(C)Cc4cn[nH]c4C[C@@H]3CO)CC[C@]12C [Ia-3, ((5R,6S)-5-((3aS,4R,5S,7aS)-4-((((2,2-difluorobenzo[d][1,3]dioxol-5-yl)methyl)amino)methyl)-7a-methyl-1-methyleneoctahydro-1H-inden-5-yl)-5-methyl-4,5,6,7-tetrahydro-1H-indazol-6-yl)methanol] | D (a PDR^60 of 0 to 30%) | 2 to 6 µM | < 2 µM |  |
| C[C@]12C=CC(=O)C=C1CC[C@@H]1[C@@H]2[C@@H](O)C[C@@]2(C)[C@H]1CC[C@]2(O)C(=O)CO [prednisolone, reference compound] |  |  |  | reduction of the colonic score [3]: 68% |
| C=C1CC[C@H]2[C@H](CN)[C@@H]([C@@]3(C)Cc4c(C(F)F)n[nH]c4C[C@@H]3CO)CC[C@]12C [Ia-30, ((5R,6S)-5-((3aS,4R,5S,7aS)-4-(aminomethyl)-7a-methyl-1-methyleneoctahydro-1H-inden-5-yl)-3-(difluoromethyl)-5-methyl-4,5,6,7-tetrahydro-1H-indazol-6-yl)methanol] |  |  | 6 to 15 µM |  |
| CC(C)CCC[C@@H](C)[C@H]1CC[C@H]2[C@H](CN)[C@@H]([C@@]3(C)Cc4cn[nH]c4C[C@@H]3CO)CC[C@]12C [Ia-6, ((5R,6S)-5-((1R,3aS,4S,5S,7aR)-4-(aminomethyl)-7a-methyl-1-((R)-6-methylheptan-2-yl)octahydro-1H-inden-5-yl)-5-methyl-4,5,6,7-tetrahydro-1H-indazol-6-yl)methanol] | A (a PDR^60 of 81 to 100%) | 6 to 15 µM | < 2 µM | Scoring (% protection from 0-60 min) (Mice (male, C57Bl/6) [2]): C (a % protection of 31 to 60%) |
| Cc1ccc(=O)n(-c2ccccc2)c1 [pirfenidone, reference compound] |  |  |  | reduction in BAL macrophages (Mice (male, C57Bl/6) [4]; Day 7, 100 mg/kg dose): 30%; reduction in fibrosis (Mice (male, C57Bl/6) [4]; Day 14, 100 mg/kg dose): 46% |
| CC(C)Cc1ccc(C(C)C(=O)O)cc1 (stereo not drawn) [ibuprofen, reference compound] |  |  |  | nociceptive threshold restored, % of the baseline (male Sprague-Dawley rats): 120%; nociceptive threshold, % of baseline levels [5]: 123% |
| COc1cccc(C2(O)CCCCC2CN(C)C)c1 (stereo not drawn) [tramadol, reference compound] |  |  |  | overall increase in paw withdrawal threshold as compared to the vehicle [6]: 77%; reduction difference in weight bearing as compared to the vehicle (rats (male, Wistar); 10 mg/kg): 79%; reduction in knee diameter as compared to the vehicle (rats (male, Wistar); Day 3, 30 mg/kg): 11% |
| CC(C)CCC[C@@H](C)[C@H]1CC[C@H]2[C@H](CNCc3ccc4c(c3)OC(F)(F)O4)[C@@H]([C@@]3(C)Cc4cn[nH]c4C[C@@H]3CO)CC[C@]12C [Ia-7, ((5R,6S)-5-((1R,3aS,4S,5S,7aR)-4-((((2,2-difluorobenzo[d][1,3]dioxol-5-yl)methyl)amino)methyl)-7a-methyl-1-((R)-6-methylheptan-2-yl)octahydro-1H-inden-5-yl)-5-methyl-4,5,6,7-tetrahydro-1H-indazol-6-yl)methanol] |  |  | < 2 µM |  |
